Laboratory results published in patent US20140336073A1, “METHOD OF DETERMINATION OF CANCER CELL DRUG SENSITIVITY TOWARDS AURORA KINASE INHIBITORS” (PALACKY UNIVERSITY, OLOMOUC, priority 2011, published 2014).
Like-named read-outs stand apart in the source and are kept apart here.

Legend:
HCT116 p53+/+ parent = test: cells; conditions: for IC50: Homo sapiens
Experimental: (§1) This method is performed based on the principle that viable cells can reduce yellow colored MTT (3-(4,5-dimethylthiazol-2-yl)-2,5-diphenyltetrazolium bromide) salt to purple colored formazan. The intensity of the purple colored produced is directly proportional to number of viable cells, which can be measured […]. To determine the half inhibitory concentration (IC50) of any medicinal agent MTT assay is very reliable and well accepted. […] The assay was carried out in 2 technical replicates for each concentration and in 3 biological replicates. Alongside blank and controls were included and incubated for 96 hrs. At the end of the assay time point 10 μl of MTT/well (Sigma) (10 mg/ml) was added and incubated until the appearance of violet formazan crystals. The formazan was dissolved with 100 μl/well 10% aqueous SDS (pH: 5.5) by incubating the plates at 37° C. overnight. The optical density was measured at 540 nm using the Labsystem IMS reader and the […] values were determined using Chemorezist software.

HCT116 p53−/− parent = test: Cell proliferation (MTT) IC50, cross-resistance profile; format: cell-based; conditions: Homo sapiens, HCT-116
[1] = system: R2.3 (HCT116 p53−/− CYC116 resistant clone); test: as above; format: cell-based; conditions: for IC50: Homo sapiens, HCT-116, clone R2.3; for fold increase of IC50 vs parent: clone R2.3 vs HCT116 p53−/− parent
Experimental: (§2) Colonies were isolated and bulked up for further studies. […] [1]
as §1

[2] = system: R1.3 (HCT116 p53+/+ CYC116 resistant clone); test: as above; format: cell-based; conditions: for IC50: Homo sapiens, HCT-116, clone R1.3; for fold increase of IC50 vs parent: clone R1.3 vs HCT116 p53+/+ parent
Experimental: as §2, §1

[3] = system: R3.3 (HCT116 p53+/+ ZM447439 resistant clone); test: as above; format: cell-based; conditions: for IC50: Homo sapiens, HCT-116, clone R3.3; for fold increase of IC50 vs parent: clone R3.3 vs HCT116 p53+/+ parent
Experimental: as §2, §1

[4] = system: R1.1 (HCT116 p53+/+ CYC116 resistant clone); test: as above; format: cell-based; conditions: for IC50: Homo sapiens, HCT-116, clone R1.1; for fold increase of IC50 vs parent: clone R1.1 vs HCT116 p53+/+ parent
Experimental: as §2, §1

[5] = system: R3.1 (HCT116 p53+/+ ZM447439 resistant clone); test: as above; format: cell-based; conditions: for IC50: Homo sapiens, HCT-116, clone R3.1; for fold increase of IC50 vs parent: clone R3.1 vs HCT116 p53+/+ parent
Experimental: as §2, §1

[6] = system: R1.2 (HCT116 p53+/+ CYC116 resistant clone); test: as above; format: cell-based; conditions: for IC50: Homo sapiens, HCT-116, clone R1.2; for fold increase of IC50 vs parent: clone R1.2 vs HCT116 p53+/+ parent
Experimental: as §2, §1

[7] = system: R4.3 (HCT116 p53−/− ZM447439 resistant clone); test: as above; format: cell-based; conditions: for IC50: Homo sapiens, HCT-116, clone R4.3; for fold increase of IC50 vs parent: clone R4.3 vs HCT116 p53−/− parent
Experimental: as §2, §1

[8] = system: R3.2 (HCT116 p53+/+ ZM447439 resistant clone); test: as above; format: cell-based; conditions: for IC50: Homo sapiens, HCT-116, clone R3.2; for fold increase of IC50 vs parent: clone R3.2 vs HCT116 p53+/+ parent
Experimental: as §2, §1

[9] = system: R4.1 (HCT116 p53−/− ZM447439 resistant clone); test: as above; format: cell-based; conditions: for IC50: Homo sapiens, HCT-116, clone R4.1; for fold increase of IC50 vs parent: clone R4.1 vs HCT116 p53−/− parent
Experimental: as §2, §1

[10] = system: R4.2 (HCT116 p53−/− ZM447439 resistant clone); test: as above; format: cell-based; conditions: for IC50: Homo sapiens, HCT-116, clone R4.2; for fold increase of IC50 vs parent: clone R4.2 vs HCT116 p53−/− parent
Experimental: as §2, §1

[11] = system: R2.2 (HCT116 p53−/− CYC116 resistant clone); test: as above; format: cell-based; conditions: for IC50: Homo sapiens, HCT-116, clone R2.2; for fold increase of IC50 vs parent: clone R2.2 vs HCT116 p53−/− parent
Experimental: as §2, §1

[12] = system: R2.1 (HCT116 p53−/− CYC116 resistant clone); test: as above; format: cell-based; conditions: for IC50: Homo sapiens, HCT-116, clone R2.1; for fold increase of IC50 vs parent: clone R2.1 vs HCT116 p53−/− parent
Experimental: as §2, §1

Bcl-w = Bcl-w (Homo sapiens, UniProt Q92843); conditions: cited from earlier work
Bcl-w, sequence (Q92843 whole entry): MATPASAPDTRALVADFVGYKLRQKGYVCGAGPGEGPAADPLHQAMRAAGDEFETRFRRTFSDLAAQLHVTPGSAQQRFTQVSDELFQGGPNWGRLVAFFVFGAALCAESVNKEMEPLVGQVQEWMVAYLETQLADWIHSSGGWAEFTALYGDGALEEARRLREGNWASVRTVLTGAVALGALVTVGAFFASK

[13] = system: p53+/+ ZM447439 resistant clones; test: MTT based cell proliferation assay of ABT-263; conditions: diploid p53+/+ ZM447439 resistant clones, 96 hrs MTT
Experimental: (§3) The MTT assay was performed in three independent replicates (n=3).
as §1

[14] = system: p53−/− ZM447439 resistant clones; test: MTT based cell proliferation assay of ABT-263; conditions: diploid p53−/− ZM447439 resistant clones, 96 hrs MTT
Experimental: as §3, §1

[15] = system: HCT116 p53−/−: CYC116 resistant clones; test: MTT based cell proliferation assay of ABT-263; conditions: polyploid clones, 96 hrs MTT
Experimental: as §3, §1

CYP1A1 = CYP1A1 expression after CYC116 treatment for 48 h; format: cell-based; conditions: HCT116 and HCT116 p53−/− treated with CYC116 for 48 h
Description: CYP1A1 is involved in the metabolism of polycyclic aromatic hydrocarbons (PAH). In tobacco smokers CYP1A1 transforms PAH into procarcinogens. CYP1A1 expression was reported in pulmonary cancers and also altered expression in many lung tumors (McLemore T. L. et al., Journal of the National Cancer Institute 1990; 82, 1333-39).

primary tumor samples = test: 96-h MTT cell proliferation assay on primary tumor biopsies; format: cell-based; conditions: Homo sapiens
Flt-3 = Flt-3 (Homo sapiens, UniProt P36888); conditions: cited from earlier work
Flt-3, sequence (P36888 27-993): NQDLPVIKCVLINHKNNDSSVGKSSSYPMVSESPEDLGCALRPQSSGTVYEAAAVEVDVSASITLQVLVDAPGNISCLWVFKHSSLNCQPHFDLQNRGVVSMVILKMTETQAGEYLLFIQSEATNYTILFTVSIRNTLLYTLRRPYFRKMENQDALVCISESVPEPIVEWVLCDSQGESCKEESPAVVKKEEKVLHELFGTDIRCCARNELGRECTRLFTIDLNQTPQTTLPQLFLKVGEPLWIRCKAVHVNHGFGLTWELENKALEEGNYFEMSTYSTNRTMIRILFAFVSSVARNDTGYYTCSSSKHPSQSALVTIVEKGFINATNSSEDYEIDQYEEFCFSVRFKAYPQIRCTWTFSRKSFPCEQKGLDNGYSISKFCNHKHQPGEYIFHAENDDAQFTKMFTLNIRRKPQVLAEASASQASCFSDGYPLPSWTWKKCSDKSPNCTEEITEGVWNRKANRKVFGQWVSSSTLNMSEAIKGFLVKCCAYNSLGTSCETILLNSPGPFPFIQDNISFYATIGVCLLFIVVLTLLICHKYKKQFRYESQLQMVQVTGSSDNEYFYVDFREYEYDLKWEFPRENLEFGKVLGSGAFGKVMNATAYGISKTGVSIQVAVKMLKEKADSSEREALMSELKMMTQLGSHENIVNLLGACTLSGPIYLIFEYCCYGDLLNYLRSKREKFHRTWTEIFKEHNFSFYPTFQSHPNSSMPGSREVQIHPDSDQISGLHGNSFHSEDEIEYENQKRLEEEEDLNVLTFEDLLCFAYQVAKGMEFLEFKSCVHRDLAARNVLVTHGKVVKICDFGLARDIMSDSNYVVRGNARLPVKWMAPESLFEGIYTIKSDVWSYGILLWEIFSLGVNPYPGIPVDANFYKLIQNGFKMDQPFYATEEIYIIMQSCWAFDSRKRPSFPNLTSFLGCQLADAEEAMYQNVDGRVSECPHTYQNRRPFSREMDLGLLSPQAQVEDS

[16] = system: one HCT116 p53+/+: CYC116 resistant clone; test: MTT assay of CYC116 with or without Bcl-xL siRNA knockdown; format: cell-based; conditions: Homo sapiens, HCT-116
Experimental: as §1

VEGFR2 = VEGFR2 (Homo sapiens, UniProt P35968); conditions: cited from earlier work
VEGFR2, sequence (P35968 20-1356): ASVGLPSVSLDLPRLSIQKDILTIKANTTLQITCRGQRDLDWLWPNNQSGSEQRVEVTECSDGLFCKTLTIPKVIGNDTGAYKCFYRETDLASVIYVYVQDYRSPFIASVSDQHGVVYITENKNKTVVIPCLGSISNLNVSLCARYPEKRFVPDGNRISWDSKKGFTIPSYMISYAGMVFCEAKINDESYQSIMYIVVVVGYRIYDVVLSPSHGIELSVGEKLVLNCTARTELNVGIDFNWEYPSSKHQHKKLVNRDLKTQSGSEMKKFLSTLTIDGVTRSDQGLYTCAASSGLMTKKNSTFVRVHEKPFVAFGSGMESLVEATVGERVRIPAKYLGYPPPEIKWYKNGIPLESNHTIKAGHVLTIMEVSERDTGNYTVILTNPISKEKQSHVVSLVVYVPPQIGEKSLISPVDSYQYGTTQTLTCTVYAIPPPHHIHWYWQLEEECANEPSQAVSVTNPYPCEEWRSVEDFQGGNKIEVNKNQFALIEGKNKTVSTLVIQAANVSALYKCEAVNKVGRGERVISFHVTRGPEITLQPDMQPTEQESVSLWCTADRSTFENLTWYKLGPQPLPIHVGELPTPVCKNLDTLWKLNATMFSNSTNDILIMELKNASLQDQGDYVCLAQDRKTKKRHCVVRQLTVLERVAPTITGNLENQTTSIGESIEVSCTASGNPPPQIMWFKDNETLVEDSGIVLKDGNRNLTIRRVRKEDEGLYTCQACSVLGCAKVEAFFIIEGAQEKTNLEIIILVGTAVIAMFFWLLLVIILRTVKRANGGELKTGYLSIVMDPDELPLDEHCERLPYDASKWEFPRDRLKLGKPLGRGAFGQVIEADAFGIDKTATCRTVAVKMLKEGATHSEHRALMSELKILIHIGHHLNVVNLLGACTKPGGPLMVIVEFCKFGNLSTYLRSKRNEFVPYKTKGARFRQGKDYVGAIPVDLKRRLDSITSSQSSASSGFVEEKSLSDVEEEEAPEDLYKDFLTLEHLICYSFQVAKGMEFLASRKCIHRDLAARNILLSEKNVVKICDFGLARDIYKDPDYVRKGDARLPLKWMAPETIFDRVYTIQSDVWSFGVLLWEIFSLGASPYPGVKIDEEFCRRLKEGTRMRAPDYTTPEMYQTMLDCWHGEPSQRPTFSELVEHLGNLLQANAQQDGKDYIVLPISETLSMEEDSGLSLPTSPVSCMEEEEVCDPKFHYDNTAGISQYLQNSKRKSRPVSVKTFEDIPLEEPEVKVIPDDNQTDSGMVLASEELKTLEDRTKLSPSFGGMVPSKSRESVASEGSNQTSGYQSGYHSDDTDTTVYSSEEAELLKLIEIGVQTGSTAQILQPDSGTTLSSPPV

| Compound | IC50 (HCT116 p53+/+ parent; HCT-116, read-out: mean IC50) [µM] | IC50 (HCT116 p53−/− parent) [µM] | IC50 [1] [µM] | IC50 [2] [µM] | fold increase of IC50 vs parent [2] [fold] | IC50 [3] [µM] | fold increase of IC50 vs parent [3] [fold] | IC50 [4] [µM] | fold increase of IC50 vs parent [4] [fold] | IC50 [5] [µM] | fold increase of IC50 vs parent [5] [fold] | IC50 [6] [µM] | fold increase of IC50 vs parent [6] [fold] | IC50 [7] [µM] | IC50 [8] [µM] | fold increase of IC50 vs parent [8] [fold] | IC50 [9] [µM] | IC50 [10] [µM] | IC50 [11] [µM] | IC50 [12] [µM] | other results |
| --- | --- | --- | --- | --- | --- | --- | --- | --- | --- | --- | --- | --- | --- | --- | --- | --- | --- | --- | --- | --- | --- |
| Cc1cc(Nc2cc(N3CCN(C)CC3)nc(Sc3ccc(NC(=O)C4CC4)cc3)n2)n[nH]1 [VX-680, N-[4-[4-[4-methylpiperazin-1-yl)-6-[(5-methyl-1H-pyrazol-3-yl)amino]pyrimidin-2-yl]sulfanylphenyl]cyclopropanecarboxamide] | 0.03 | 0.1 | 2.4 | 1 | 33 | 0.09 | 3 | 1.9 | 63 | 2.6 | 87 | 2 | 67 | 3 | 0.7 | 23 | 0.8 | 1.5 | 2 | 4 | fold increase of IC50 vs parent [1]: 24 fold; fold increase of IC50 vs parent [7]: 13 fold; fold increase of IC50 vs parent [9]: 8 fold; fold increase of IC50 vs parent [10]: 15 fold; fold increase of IC50 vs parent [11]: 20 fold; fold increase of IC50 vs parent [12]: 40 fold |
| O=C(O)c1ccc(Nc2ncc3c(n2)-c2ccc(Cl)cc2C(c2c(F)cccc2F)=NC3)cc1 [MLN8054, 4-[[9-chloro-7-(2,6-difluorophenyl)-5H-pyrimido[5,4-d][2]benzazepin-2-yl]amino]benzoic acid] | 0.19 | 0.17 | 18 | 16 | 84 | 0.4 | 2 | 31 | 163 | 2 | 10 | 15 | 79 | 39 | 2 | 10 | 22 | 18.6 | 3 | 30 | fold increase of IC50 vs parent [1]: 106 fold; fold increase of IC50 vs parent [7]: 229 fold; fold increase of IC50 vs parent [9]: 129 fold; fold increase of IC50 vs parent [10]: 109 fold; fold increase of IC50 vs parent [11]: 18 fold; fold increase of IC50 vs parent [12]: 176 fold |
| CC1(C)CCC(c2ccc(Cl)cc2)=C(CN2CCN(c3ccc(C(=O)NS(=O)(=O)c4ccc(N[C@H](CCN5CCOCC5)CSc5ccccc5)c(S(=O)(=O)C(F)(F)F)c4)cc3)CC2)C1 [ABT-263, (R)4-(4-((4′-chloro-4,4-dimethyl-3,4,5,6-tetrahydro[1,1′-biphenyl]-2-yl)methyl)piperazin-1-yl)-N-((4-((4-morpholino-1-(phenylthio)butan-2-yl)amino)-3-((trifluoromethyl)sulfonyl)phenyl)sulfonyl)benzamide] |  |  |  |  |  |  |  |  |  |  |  |  |  |  |  |  |  |  |  |  | Ki (Bcl-w): < 0.001 µM; response to ABT-263 [13]: resistant; response to ABT-263 [14]: resistant; response to ABT-263 compared to parent HCT116 p53−/− cells [15]: significant cross-resistance |
| Cc1nc(N)sc1-c1ccnc(Nc2ccc(N3CCOCC3)cc2)n1 [CYC116, 4-methyl-5-(2-(4-morpholinophenylamino)pyrimidin-4-yl)thiazol-2-amine] |  |  |  |  |  |  |  |  |  |  |  |  |  |  |  |  |  |  |  |  | up-regulation of CYP1A1 (CYP1A1): not detected; sensitization towards CYC116 by knockdown of Bcl-xL (HCT116 p53+/+ parent; Bcl-xL siRNA knockdown in HCT116 parent cell line (low Bcl-xL expression)): no sensitization effect; IC50 (HCT116 p53+/+ parent; HCT-116, read-out: IC50 value): 0.34 µM; IC50 (primary tumor samples; 13 sensitive primary tumor samples): ≤ 4.42 µM; IC50 (primary tumor samples; 14 resistant primary tumor samples): ≤ 95 µM; inhibition of Flt-3 (Flt-3): inhibits; IC50 ([16]; read-out: IC50 value): 6 µM; IC50 ([16]; read-out: IC50 value after knockdown of Bcl-xL): 0.9 µM; inhibition of VEGFR2 (VEGFR2): inhibits |
| CCN(CCCOc1ccc2c(Nc3cc(CC(=O)Nc4cccc(F)c4)n[nH]3)ncnc2c1)CCOP(=O)(O)O [AZD1152, 2-[ethyl-[3-[4-[[5-[2-(3-fluoroanilino)-2-oxoethyl]-1Hpyrazo[3 yl]amino]quinazolin7-yl]oxypropyl]amino]ethyldihydrogen phosphate] | 0.01 | > 50 | > 50 | 11 | 1100 | 0.07 | 7 | 17 | 1700 | 36 | 3600 | 18 | 1800 | > 50 | 8 | 800 | > 50 | > 50 | > 50 | > 50 |  |
